Results taken from patent US10624910B2, “Thrombin-like enzyme for reducing a side effect of an anticancer drug” (priority 2007, dated 2020).
Marks after values point to notes of the source that are not given here.

How the values were obtained:
Format in all cases: in vivo
[1] = tested on: C57BL/6 male mice inoculated with B16-BL6 murine malignant melanoma cells; experiment: Reducing effect of batroxobin on cardiotoxicity caused by adriamycin (H&E histopathology of left ventricular myocardial tissue); conditions: batroxobin 20 BU/kg i.p. once a day and/or adriamycin 3 mg/kg i.p. once interval of 2 days; after 20 days
Description: (§1) The thrombin-like enzyme, batroxobin (hereinafter referred to as DF-521) was used, which is manufactured by Beijing Tobishi Pharmaceutical Co., Ltd. (Beijing, China) with a trade name of Dong Ling Di Fu.
The anticancer drug, adriamycin (hereinafter referred to as ADM) was used, which is manufactured by Shenzhen Main Luck Pharmaceuticals Inc.
The laboratory animals, C57BL/6 male mice (weight: 16-18 g) were divided into 4 groups: 10 mice in the control group, 7 mice in the batroxobin group, 7 mice in the adriamycin group, and 7 mice in the adriamycin+batroxobin group. Mice from each group were inoculated with a dorsal right lateral subcutaneous injection of 3×10^6 B16-BL6 murine malignant melanoma cells in 0.3 ml of tumor cell suspension. After one day of tumor cell inoculation, the control group was given an intraperitoneal injuction of physiological saline once a day; the batroxobin group was given an intraperitoneal injection of batroxobin (20 BU/kg) once a day; the adriamycin group was given an intraperitoneal injection of adriamycin (3 mg/kg) once interval of 2 days; the adriamycin+batroxobin group was given an intraperitoneal injection of adriamycin (3 mg/kg) once interval of 2 days and an intraperitoneal injection of 20 BU/kg batroxobin once a day after administration of adriamycin. […]

[2] = tested on: male C57BL/6 mice; experiment: Reducing effect of batroxobin on lethal toxicity caused by adriamycin; conditions: ADM 3 mg/kg i.p. (+ batroxobin 30 BU/kg i.p.) once every other day, 18 times; 41th day after first dose
Description: as §1
The anticancer drug, adriamycin (hereinafter referred to as ADM) was used, which is manufactured by Hualian Pharmaceutical Factory of Shanghai Pharmaceutical (Group) Co., Ltd.
The laboratory animals, male C57BL/6 mice (weight: 19-22 g) were divided into three groups: control group, adriamycin group (ADM group), and adriamycin+batroxobin group (ADM+DF-521 group), with 10 mice in each group. The control group was administered with physiological saline.
The adriamycin group was given an intraperitoneal dose (3 mg/kg) of adriamycin once every other day. The adriamycin+batroxobin group was given a simultaneous dosage of 3 mg/kg of adriamycin and 30 BU/kg of batroxobin intraperitoneally, once every other day. The drug administration was performed in total of 18 times. The experiment was terminated on the 41th day after the first dose administered. The number of deaths was totaled, and the survival rate was calculated from mortality rate.

[3] = tested on: C57BL/6 Mice; experiment: Reducing effect of batroxobin on bone marrow suppression caused by adriamycin; conditions: ADM 3 mg/kg i.p. (+ batroxobin 30 BU/kg i.p.) once every other day; after 9th administration
Description: as §1
The anticancer drug, adriamycin (hereinafter referred to as ADM) was used, which is manufactured by Hualian Pharmaceutical Factory of Shanghai Pharmaceutical Group Co., Ltd.
The laboratory animals, C57BL/6 Mice (weight: 19-22 g) were divided into three groups: control group, adriamycin group (ADM group), and adriamycin+batroxobin (ADM+DF-521 group), with 5-10 mice (n=5 or 10) in one group. The control group was given physiological saline once every other day. The adriamycin group was given an intraperitoneal dose of 3 mg/kg of adriamycin once every other day. The adriamycin+batroxobin group was given an intraperitoneal doses of 3 mg/kg of adriamycin and 30 BU/kg of batroxobin simultaneously, once every other day. After the 9th administration, the experiment was terminated, and the blood was collected from the femoral artery under ether anesthesia using the EDTA anticoagulant. Then, the WBC, RBC counts and Hb value were measured.
Furthermore, the bone marrow nuclear cell (BMNC) count per femur of a mouse was measured with the following procedure. The bone marrow was sampled from 2 femora of a mouse, bone marrow was flushed with the 2 ml physiological saline, and made the bone marrow cell suspension. Twenty of marrow cell suspension was put into 380 μl of 3% acetic acid solution. After the red blood cells were destroyed, the hemocytometer was used for counting the BMNC count under the microscope. Then the BMNC count per femur was calculated.
The above-mentioned BMNC, RBC, WBC counts and Hb value were used as an evaluation index for bone marrow suppression caused by adriamycin.

[4] = tested on: male C57BL/6 mice; experiment: Reducing effect of batroxobin on bone marrow suppression caused by cyclophosphamide; conditions: CPA 100 mg/kg i.p. (+ batroxobin 30 BU/kg i.p.) once every other day; after fourth administration (7 days)
Description: as §1
The anticancer chug, cyclophosphamide (hereinafter referred to as CPA) was used, which is manufactured by Shanxi Powerdone Pharmaceutical Co., Ltd.
The laboratory animals, male C57BL/6 mice (weight: […] were divided into three groups: control group, cyclophosphamide group (CPA group), and cyclophosphamide+batroxobin group (CPA+DF-521 group), with five mice in one group. The control group was given physiological saline once every other day. The cyclophosphamide group was given an intraperitoneal dose of 100 mg/kg of cyclophosphamide once every other day. The cyclophosphamide+batroxobin group was given an intraperitoneal dose of 100 mg/kg of cyclophosphamide and 30 BU/kg of batroxobin simultaneously, once every other day. After the fourth administration (7 days after the first administration), blood was collected from the femoral artery under ether anesthesia using the EDTA anticoagulant, and the white blood cell count (WBC), red blood cell count (RBC), hemoglobin value (Hb), and platelet count (Plt) was measured.
The bone marrow nuclear cell count (BMNC) per femur of a mouse was measured by the following procedure. Bone marrow was sampled from 2 femora of a mouse, the marrow was flushed with 2 ml of physiological saline, and made the bone marrow cell suspension. Twenty μl of bone marrow cell suspension was put into […] of 3% acetic acid solution. After the red blood cells were destroyed, the hemocytometer was used for counting the BMNC count under the microscope. Then the BMNC count per femur was calculated.
The above-mentioned BMNC, WBC, RBC, Plt counts and Hb value are used as an evaluation index for bone marrow suppression caused by cyclophosphamide.

[5] = tested on: male C57BL/6 mice; experiment: Reducing effect of batroxobin on bone marrow suppression caused by cisplatin; conditions: DDP 0.8 mg/kg i.p. (+ batroxobin 30 BU/kg i.p.) once every other day; after 17th administration (33rd day)
Description: as §1
The anticancer drug, cisplatin (hereinafter referred to as DDP) was used, which is manufactured by Yunnan Gejiu Biochemical Pharmaceutical Co., Ltd.
The laboratory animals, male C57BL/6 Mice (weight: 20-22 g) were divided into 3 groups: control group, cisplatin group (DDP group), and cisplatin+batroxobin group (DDP+DF-521 group); with 10 mice in one group. The control group was given physiological saline once every other day. The cisplatin group was given an intraperitoneal dose of 0.8 mg/kg of cisplatin once every other day. The cisplatin+batroxobin group was given an intraperitoneal dose of 0.8 mg/kg of cisplatin and 30 BU/kg of batroxobin simultaneously, once every other day. After the 17th administration (33rd day after the first administration), the experiment was terminated, blood was collected from the femoral artery under ether anesthesia using the anticoagulant EDTA, and the WBC, RBC, Plt counts and Hb value, were measured.
Furthermore the bone marrow nuclear cell (BMNC) count per femur of a mouse was measured by the following procedure. Bone marrow was sampled from 2 femora of a mouse, the bone marrow was flushed with the 2 ml physiological saline, and made bone marrow cell suspension. Twenty μl of marrow cell suspension was put into 380 μl of 3% acetic acid solution. After the red blood cells were destroyed, the hemocytometer was used for counting the BMNC count under the microscope. Then, the BMNC count per femur was calculated.
The above-mentioned BMNC, WBC, RBC, Plt counts and Hb value were used as an evaluation index for bone marrow suppression caused by cisplatin.

[6] = tested on: Rabbit (NW); experiment: Acute toxicity of batroxobin (i.v.), rabbit
Method: (§2) The thrombin-like enzyme, batroxobin is used in the present agent. The acute toxicity (LD50 (BU/kg)) of batroxobin on mice, rats, rabbits and dogs is as follows in Table 1. The acute toxicity test was assessed by the intravenous administration of batroxobin.

[7] = tested on: Rat (Wistar); experiment: Acute toxicity of batroxobin (i.v.), rat
Method: as §2

[8] = tested on: Mouse (ddy); experiment: Acute toxicity of batroxobin (i.v.), mouse
Method: as §2

[9] = tested on: Dog (mongrel); experiment: Acute toxicity of batroxobin (i.v.), dog
Method: as §2

For `COc1cccc2c1C(=O)c1c(O)c3c(c(O)c1C2=O)C[C@@](O)(C(=O)CO)C[C@@H]3O[C@H]1C[C@H](N)[C@H](O)[C@H](C)O1` [ADM, adriamycin], the “Pathological findings in left ventricular myocardial tissue (H&E) compared to control group” value [1] was “abnormalities were observed”, the “Survival No/Total No” value [2] was 4/10* and the survival rate % [2] was “(40%)”. For the same compound, the BMNC [3] was 6.9 ± 1.6 ×10^6/bone, the Hb [3] was 94.9 ± 30.5 g/L and the RBC [3] was 6.6 ± 1.5 ×10^12/L. The WBC [3] was 3.4 ± 0.7 ×10^9/L.
With `O=P1(N(CCCl)CCCl)NCCCO1` (stereo not shown) [CPA, cyclophosphamide] the BMNC [4] was 2.4 ± 0.4 ×10^6/bone, the Hb [4] was 98.8 ± 9.2 g/L and the Plt [4] was 1081.6 ± 47.4 ×10^9/L. The RBC [4] was 6.2 ± 0.5 ×10^12/L and the WBC [4] was 0.8 ± 0.3 ×10^9/L.
For `N.N.[Cl][Pt][Cl]` [DDP, cisplatin], the BMNC [5] was 11.3 ± 2.6 ×10^6/bone, the Hb [5] was 121.6 ± 10.7 g/L and the Plt [5] was 1059.2 ± 241.5 ×10^9/L. The RBC [5] was 7.4 ± 0.8 ×10^12/L and the WBC [5] was 6.1 ± 2.2 ×10^9/L.
With batroxobin the “Pathological findings in left ventricular myocardial tissue (H&E) compared to control group” value [1] was “abnormalities were not observed”, the “LD50 Value” [6] was greater than 300 BU/kg and the “LD50 Value” [7] was 105~110 BU/kg. The “LD50 Value” [8] was 192~210 BU/kg and the “LD50 Value” [9] was 190~208 BU/kg.
